Patent US7928098B2, “Therapeutic and/or preventive agents for a sleep disorder” (Kyowa Hakko Kirin Co., Ltd., priority 2005, dated 2011)

Row | SMILES | melting point
1 | Cn1ccc(C(=O)c2sc(NC(=O)c3ccncc3)nc2-c2ccco2)c1 [Compound 261, N-[4-(2-Furyl)-5-(1-methylpyrrol-3-ylcarbonyl)thiazol-2-yl]pyridine-4-carboxamide] | 209 to 211 °C
2 | O=C(CCc1ccccc1)Nc1nc(-c2ccco2)c(C(=O)C2CCOCC2)s1 [Compound 432, N-[4-(2-Furyl)-5-(tetrahydropyran-4-ylcarbonyl)thiazol-2-yl]-3-phenylpropanamide] | 161 to 164 °C
3 | CN1CCN(CC(=O)Nc2nc(-c3ccco3)c(C(=O)c3ccccn3)s2)CC1=O.Cl | 170 to 188 °C
4 | O=C(Nc1nc(-c2ccco2)c(C(=O)c2ccccn2)s1)c1cnc(C2CC2)nc1 [Compound 137, 2-Cyclopropyl-N-[4-(2-furyl)-5-(pyridin-2-ylcarbonyl)thiazol-2-yl]pyrimidine-5-carboxamide] | 150 to 154 °C
5 | O=C(c1sc(NC(=O)C2CCCO2)nc1-c1ccco1)C1CCOCC1 (stereo not drawn) [Compound 428, N-[4-(2-Furyl)-5-(tetrahydropyran-4-ylcarbonyl)thiazol-2-yl]tetrahydrofuran-2-carboxamide] | 115 to 117 °C
6 | O=C(CN1CCC(O)CC1)Nc1nc(-c2ccco2)c(C(=O)C2CCOCC2)s1 [Compound 448, N-[4-(2-Furyl)-5-(tetrahydropyran-4-ylcarbonyl)thiazol-2-yl]-2-(4-hydroxypiperidino)acetamide] | 178 to 180 °C
7 | O=C(Nc1nc(-c2ccco2)c(C(=O)c2ccc(N3CCOCC3)nc2)s1)c1ccncc1 [Compound 231, N-[4-(2-Furyl)-5-(2-morpholinopyridin-5-ylcarbonyl)thiazol-2-yl]pyridine-4-carboxamide] | 195 to 220 °C
8 | O=C(CN1CCCCC1)Nc1nc(-c2ccco2)c(C(=O)C2CCOCC2)s1 [Compound 447, N-[4-(2-Furyl)-5-(tetrahydropyran-4-ylcarbonyl)thiazol-2-yl]-2-piperidinoacetamide] | 146 to 147 °C
9 | O=C(Nc1nc(-c2ccco2)c(C(=O)C2CCOCC2)s1)c1ccc2c(c1)OCO2 [Compound 401, N-[4-(2-Furyl)-5-(tetrahydropyran-4-ylcarbonyl)thiazol-2-yl]-1,3-benzodioxol-5-carboxamide] | 194 to 196 °C
10 | CCCC(=O)c1sc(NC(=O)c2ccco2)nc1-c1ccco1 [Compound 293, N-[5-Butyryl-4-(2-furyl)thiazol-2-yl]furan-2-carboxamide] | 172 to 176 °C
11 | O=C(Nc1nc(-c2ccco2)c(C(=O)C2CCOCC2)s1)c1cc(F)ccc1F [Compound 396, 2,5-Difluoro-N-[4-(2-furyl)-5-(tetrahydropyran-4-ylcarbonyl)thiazol-2-yl]benzamide] | 172 to 174 °C
12 | CC(=O)c1ccc(C(=O)Nc2nc(-c3ccco3)c(C(=O)c3ccccn3)s2)cc1 [Compound 116, 4-Acetyl-N-[4-(2-furyl)-5-(pyridin-2-ylcarbonyl)thiazol-2-yl]benzamide] | 204 to 206 °C
13 | O=C(Nc1nc(-c2ccco2)c(C(=O)c2ccccn2)s1)c1ccnc(N2CCOCC2)c1 [Compound 127, N-[4-(2-Furyl)-5-(pyridin-2-ylcarbonyl)thiazol-2-yl]-2-morpholinopyridine-4-carboxamide] | 216 to 217 °C
14 | CN(C)Cc1cc(C(=O)Nc2nc(-c3ccco3)c(C(=O)c3ccccc3)s2)ccn1 [Compound 49, N-[5-Benzoyl-4-(2-furyl)thiazol-2-yl]-2-(dimethylaminomethyl)pyridine-4-carboxamide] | 205 to 209 °C
15 | O=C(Nc1nc(-c2ccco2)c(C(=O)c2ccccn2)s1)c1ccc2snnc2c1 [Compound 152, N-[4-(2-Furyl)-5-(pyridin-2-ylcarbonyl)thiazol-2-yl]-1,2,3-benzothiadiazole-5-carboxamide] | 213 to 218 °C
16 | COc1ccc(C(=O)Nc2nc(-c3ccco3)c(C(=O)c3ccccn3)s2)c(OC)n1 [Compound 132, N-[4-(2-Furyl)-5-(pyridin-2-ylcarbonyl)thiazol-2-yl]-2,6-dimethoxypyridine-3-carboxamide] | 201 to 202 °C
17 | Cc1cc(C(=O)Nc2nc(-c3ccco3)c(C(=O)c3ccnc(C)c3)s2)ccn1 [Compound 240, N-[4-(2-Furyl)-5-(2-methylpyridin-4-ylcarbonyl)thiazol-2-yl]-2-methylpyridine-4-carboxamide] | 205 to 229 °C
18 | O=C(Nc1nc(-c2ccco2)c(C(=O)c2ccccn2)s1)c1ccc2c(c1)OCO2 [Compound 117, N-[4-(2-Furyl)-5-(pyridin-2-ylcarbonyl)thiazol-2-yl]-3,4-methylenedioxybenzamide] | 235 to 236 °C
19 | COCC#CC(=O)c1sc(NC(=O)c2ccncc2)nc1-c1ccco1 [Compound 319, N-[4-(2-Furyl)-5-(3-methoxyprop-1-ynylcarbonyl)thiazol-2-yl]pyridine-4-carboxamide] | 198 to 200 °C
20 | Cc1cc(C(=O)Nc2nc(-c3ccco3)c(C(=O)c3ccccn3)s2)c(C)o1 [Compound 148, N-[4-(2-Furyl)-5-(pyridin-2-ylcarbonyl)thiazol-2-yl]-2,5-dimethylfuran-3-carboxamide] | 195 to 198 °C

Row | SMILES | melting point
21 | Cc1cccc(C(=O)Nc2nc(-c3ccco3)c(C(=O)C3CCOCC3)s2)c1 [Compound 364, N-[4-(2-Furyl)-5-(tetrahydropyran-4-ylcarbonyl)thiazol-2-yl]-3-methylbenzamide] | 197 to 201 °C
22 | O=C(Cc1ccccc1)Nc1nc(-c2ccco2)c(C(=O)C2CCOCC2)s1 [Compound 431, N-[4-(2-Furyl)-5-(tetrahydropyran-4-ylcarbonyl)thiazol-2-yl]-2-phenylacetamide] | 140 to 142 °C
23 | Cn1cc(C(=O)Nc2nc(-c3ccco3)c(C(=O)c3ccccc3)s2)ccc1=O [Compound 58, N-[5-Benzoyl-4-(2-furyl)thiazol-2-yl]-1-methyl-2-oxo-1,2-dihydropyridine-5-carboxamide] | 220 to 225 °C
24 | COc1ccc(C(=O)Nc2nc(-c3ccco3)c(C(=O)C3CCOCC3)s2)cc1OC [Compound 392, N-[4-(2-Furyl)-5-(tetrahydropyran-4-ylcarbonyl)thiazol-2-yl]-3,4-dimethoxybenzamide] | 289 to 292 °C
25 | Cc1ccc(C(=O)c2sc(NC(=O)c3ccncc3)nc2-c2ccco2)nc1 [Compound 202, N-[4-(2-Furyl)-5-(5-methylpyridin-2-ylcarbonyl)thiazol-2-yl]pyridine-4-carboxamide] | 255 to 257 °C
26 | O=C(Nc1nc(-c2ccco2)c(C(=O)C2CCOCC2)s1)c1ccc(N2CCOCC2)nc1 [Compound 408, N-[4-(2-Furyl)-5-(tetrahydropyran-4-ylcarbonyl)thiazol-2-yl]-2-morpholinopyridine-5-carboxamide] | 166 to 170 °C
27 | CC(=O)c1sc(NC(=O)c2ccncc2)nc1-c1ccco1 [Compound 284, N-[5-Acetyl-4-(2-furyl)thiazol-2-yl]pyridine-4-carboxamide] | 252 to 259 °C (dec.)
28 | Cc1ncc(C(=O)Nc2nc(-c3ccco3)c(C(=O)C3CCSCC3)s2)cn1 [Compound 494, N-[4-(2-Furyl)-5-(tetrahydrothiopyran-4-ylcarbonyl)thiazol-2-yl]-2-methylpyrimidine-5-carboxamide] | 238 to 240 °C
29 | O=C(Nc1nc(-c2ccco2)c(C(=O)C2CCOCC2)s1)c1ccc(CN2CCCCC2)cc1 [Compound 385, N-[4-(2-Furyl)-5-(tetrahydropyran-4-ylcarbonyl)thiazol-2-yl]-4-(piperidinomethyl)benzamide] | 160 to 162 °C
30 | COCCN(C)CC(=O)Nc1nc(-c2ccco2)c(C(=O)C2CCOCC2)s1 [Compound 439, N-[4-(2-Furyl)-5-(tetrahydropyran-4-ylcarbonyl)thiazol-2-yl]-2-[N-(2-methoxyethyl)-N-methylamino]acetamide] | 103 to 105 °C
31 | COc1ccc(-c2c[nH]c(-c3nc(-c4ccco4)c(C(=O)C4CCOCC4)s3)n2)cc1 [Compound 520, 4-(2-Furyl)-2-[4-(4-methoxyphenyl)imidazol-2-yl]thiazol-5-yl tetrahydropyran-4-yl ketone] | 178 to 180 °C
32 | CC(C)(C)C(=O)c1sc(NC(=O)c2ccncc2)nc1-c1ccco1 [Compound 306, N-[4-(2-Furyl)-5-pivaloylthiazol-2-yl]pyridine-4-carboxamide] | 240 to 245 °C
33 | O=C1CCC(C(=O)c2sc(NC(=O)c3ccco3)nc2-c2ccco2)CC1 [Compound 355, N-[4-(2-Furyl)-5-(4-oxocyclohexylcarbonyl)thiazol-2-yl]-furan-2-carboxamide] | 232 to 235 °C
34 | Cc1ccc(C(=O)c2sc(NC(=O)c3ccoc3)nc2-c2ccco2)cn1 [Compound 223, N-[4-(2-Furyl)-5-(2-methylpyridin-5-ylcarbonyl)thiazol-2-yl]furan-3-carboxamide] | 229 to 231 °C
35 | O=C(Nc1nc(-c2ccco2)c(C(=O)c2ccncn2)s1)c1ccncc1 [Compound 282, N-[4-(2-Furyl)-5-(pyrimidine-4-ylcarbonyl)thiazol-2-yl]pyridine-4-carboxamide] | > 300 °C
36 | CN(C)Cc1ccc(C(=O)Nc2nc(-c3ccco3)c(C(=O)C3CCOCC3)s2)cc1 [Compound 384, 4-(Dimethylaminomethyl)-N-[4-(2-furyl)-5-(tetrahydropyran-4-ylcarbonyl)thiazol-2-yl]benzamide] | 109 to 112 °C
37 | CC(C)N1CCN(CC(=O)Nc2nc(-c3ccco3)c(C(=O)c3ccccn3)s2)CC1 [Compound 182, N-[4-(2-Furyl)-5-(pyridin-2-ylcarbonyl)thiazol-2-yl]-2-(4-isopropylpiperazine-1-yl)acetamide] | 154 to 155 °C
38 | O=C(CN1CCC2(CC1)OCCO2)Nc1nc(-c2ccco2)c(C(=O)C2CCOCC2)s1 [Compound 459, 2-(1,4-Dioxa-8-azaspiro[4.5]decan-8-yl)-N-[4-(2-furyl)-5-(tetrahydropyran-4-ylcarbonyl)thiazol-2-yl]acetamide] | 186 to 187 °C
39 | O=C(Nc1nc(-c2ccco2)c(C(=O)c2ccccn2)s1)c1ccccc1 [Compound 107, N-[4-(2-Furyl)-5-(pyridin-2-ylcarbonyl)thiazol-2-yl]-benzamide] | 165 to 171 °C
